Results from PubChem BioAssay (NCI).
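A five-concentration, 48-hour dose response in 96-well plates underlies each endpoint, interpolated linearly between surrounding concentrations. At the TGI there is no net growth.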

Columns and labels:
Experiment in all cases: NCI anticancer screen, dose series, 48 h
HCT-116 colon = test system: HCT-116 colon
UO-31 renal = test system: UO-31 renal
NCI-H23 lung = test system: NCI-H23 lung
IGROV1 ovarian = test system: IGROV1 ovarian
DMS 114 small cell lung = test system: DMS 114 small cell lung
LOX IMVI melanoma = test system: LOX IMVI melanoma
A549 NSCLC = test system: A549 NSCLC
NCI-H226 lung = test system: NCI-H226 lung
SF-295 CNS = test system: SF-295 CNS
ACHN renal = test system: ACHN renal
SK-OV-3 ovarian = test system: SK-OV-3 ovarian
DMS 273 small cell lung = test system: DMS 273 small cell lung
NCI-H460 lung = test system: NCI-H460 lung
SF-539 CNS = test system: SF-539 CNS
OVCAR-8 ovarian = test system: OVCAR-8 ovarian
SNB-75 CNS = test system: SNB-75 CNS
MOLT-4 leukemia = test system: MOLT-4 leukemia
SK-MEL-5 melanoma = test system: SK-MEL-5 melanoma
SN12C renal = test system: SN12C renal
TK-10 renal = test system: TK-10 renal
HT29 colon = test system: HT29 colon
SF-268 CNS = test system: SF-268 CNS
RXF 393 renal = test system: RXF 393 renal
XF 498 CNS = test system: XF 498 CNS
SNB-78 CNS = test system: SNB-78 CNS
U251 CNS = test system: U251 CNS
SK-MEL-28 melanoma = test system: SK-MEL-28 melanoma
HL-60(TB) leukemia = test system: HL-60(TB) leukemia
SW-620 colon = test system: SW-620 colon
KM12 colon = test system: KM12 colon
DLD-1 colon = test system: DLD-1 colon
OVCAR-3 ovarian = test system: OVCAR-3 ovarian
SNB-19 CNS = test system: SNB-19 CNS
SK-MEL-2 melanoma = test system: SK-MEL-2 melanoma
NCI-H522 lung = test system: NCI-H522 lung
CCRF-CEM leukemia = test system: CCRF-CEM leukemia
K-562 leukemia = test system: K-562 leukemia
LXFL 529 NSCLC = test system: LXFL 529 NSCLC
M19-MEL melanoma = test system: M19-MEL melanoma
HCT-15 colon = test system: HCT-15 colon
UACC-257 melanoma = test system: UACC-257 melanoma
UACC-62 melanoma = test system: UACC-62 melanoma
MALME-3M melanoma = test system: MALME-3M melanoma
OVCAR-4 ovarian = test system: OVCAR-4 ovarian
A498 renal = test system: A498 renal
KM20L2 colon = test system: KM20L2 colon
OVCAR-5 ovarian = test system: OVCAR-5 ovarian
HOP-18 NSCLC = test system: HOP-18 NSCLC
CAKI-1 renal = test system: CAKI-1 renal
786-0 renal = test system: 786-0 renal
EKVX NSCLC = test system: EKVX NSCLC

Q: Which results are given for `CN(C)c1nc(N(C)C)nc(N(C)CN(C)c2ccc(Cl)cc2)n1`?
A: TGI (HCT-116 colon): > 100 µM; TGI (UO-31 renal): > 100 µM; TGI (NCI-H23 lung): > 100 µM; TGI (IGROV1 ovarian): > 100 µM; TGI (DMS 114 small cell lung): > 100 µM; TGI (LOX IMVI melanoma): > 100 µM; TGI (A549 NSCLC): > 100 µM; TGI (NCI-H226 lung): > 100 µM; TGI (SF-295 CNS): > 100 µM; TGI (ACHN renal): > 100 µM; TGI (SK-OV-3 ovarian): > 100 µM; TGI (DMS 273 small cell lung): > 100 µM; TGI (NCI-H460 lung): > 100 µM; TGI (SF-539 CNS): > 100 µM; TGI (OVCAR-8 ovarian): > 100 µM; TGI (SNB-75 CNS): > 100 µM; TGI (MOLT-4 leukemia): > 100 µM; TGI (SK-MEL-5 melanoma): > 100 µM; TGI (SN12C renal): > 100 µM; TGI (TK-10 renal): > 100 µM; TGI (HT29 colon): > 100 µM; TGI (SF-268 CNS): > 100 µM; TGI (RXF 393 renal): > 100 µM; TGI (XF 498 CNS): > 100 µM; TGI (SNB-78 CNS): > 100 µM; TGI (U251 CNS): > 100 µM; TGI (SK-MEL-28 melanoma): > 100 µM; TGI (HL-60(TB) leukemia): > 100 µM; TGI (SW-620 colon): > 100 µM; TGI (KM12 colon): > 100 µM; TGI (DLD-1 colon): > 100 µM; TGI (OVCAR-3 ovarian): > 100 µM; TGI (SNB-19 CNS): > 100 µM; TGI (SK-MEL-2 melanoma): > 100 µM; TGI (NCI-H522 lung): > 100 µM; TGI (CCRF-CEM leukemia): > 100 µM; TGI (K-562 leukemia): > 100 µM; TGI (LXFL 529 NSCLC): > 100 µM; TGI (M19-MEL melanoma): > 100 µM; TGI (HCT-15 colon): > 100 µM; TGI (UACC-257 melanoma): > 100 µM; TGI (UACC-62 melanoma): > 100 µM; TGI (MALME-3M melanoma): > 100 µM; TGI (OVCAR-4 ovarian): > 100 µM

Q: Which TGI (A498 renal) does the source give for `COc1ccc2nc3cc(Cl)ccc3c(NCCC[N+](C)(C)CCCCCCCCCCCCCCCC[N+](C)(C)CCCNc3c4ccc(Cl)cc4nc4ccc(OC)cc34)c2c1` here?
A: Its TGI is greater than 100 µM.

Q: What about the TGI (KM20L2 colon) of the same molecule?
A: Its TGI is greater than 100 µM.

Q: What about the TGI (A549 NSCLC) of the same molecule?
A: The TGI was greater than 100 µM.

Q: What about the TGI (NCI-H226 lung) of the same molecule?
A: The TGI was greater than 100 µM.

Q: And the TGI (OVCAR-5 ovarian)?
A: The TGI was 14.2 µM.

Q: And the TGI (SF-295 CNS)?
A: Its TGI is greater than 100 µM.

Q: What about the TGI (ACHN renal) of the same molecule?
A: Its TGI is greater than 100 µM.

Q: And the TGI (OVCAR-8 ovarian)?
A: The TGI was greater than 100 µM.

Q: What about the TGI (SN12C renal) of the same molecule?
A: Its TGI is greater than 100 µM.

Q: What about the TGI (TK-10 renal) of the same molecule?
A: The TGI was 25.3 µM.

Q: What about the TGI (HOP-18 NSCLC) of the same molecule?
A: Its TGI is 14 µM.

Q: What about the TGI (CAKI-1 renal) of the same molecule?
A: The TGI was greater than 100 µM.

Q: What about the TGI (RXF 393 renal) of the same molecule?
A: Its TGI is greater than 100 µM.

Q: And the TGI (DLD-1 colon)?
A: The TGI was greater than 100 µM.

Q: What about the TGI (OVCAR-3 ovarian) of the same molecule?
A: Its TGI is greater than 100 µM.

Q: What about the TGI (NCI-H522 lung) of the same molecule?
A: The TGI was 8 µM.

Q: And the TGI (786-0 renal)?
A: Its TGI is greater than 100 µM.

Q: And the TGI (LXFL 529 NSCLC)?
A: The TGI was 3.25 µM.

Q: What about the TGI (HCT-15 colon) of the same molecule?
A: Its TGI is greater than 100 µM.

Q: And the TGI (EKVX NSCLC)?
A: Its TGI is 9.97 µM.
